Data from patent US20060069132A1, “Azolecarboxamide herbicides” (priority 2004, published 2006).

Tests used:
large crabgrass = experiment: Test B pre-/postemergence herbicide test; type: in vivo, Digitaria sanguinalis; details: for Crabgrass, Large plant response rating: postemergence
In short: (§1)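 Formulation: non-phytotoxic solvent mix with surfactant. Timing: preemergence on seed and postemergence on 2–18 cm plants, applied concurrently. Readout after 13–15 d greenhouse: visual 0–100 control rating against controls.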

[1] = tested on: small flower umbrella sedge; experiment: Test B flooded paddy test; type: in vivo, Cyperus difformis; details: 1000 g ai/ha, scale 0 to 100 (0 no effect, 100 complete control)
In short: (§2)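 Formulated test chemicals went onto postemergence plants measuring 2 to 18 cm, at one to four leaves. For the paddy assay, species had reached two leaves. Scoring took place 13–15 days later by eye, relative to untreated plants, using 0 for no effect up to 100 for full control.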

blackgrass = experiment: Test B postemergence herbicide test; type: in vivo, Alopecurus myosuroides; details: postemergence
In short: as §2

velvetleaf = experiment: Test B pre-/postemergence herbicide test; type: in vivo, Abutilon theophrasti; details: for Velvetleaf plant response rating: scale 0 (no effect) to 100 (complete control)
In short: as §1

wheat = experiment: Test B postemergence herbicide test; type: in vivo, Triticum aestivum; design: key to Wheat plant response rating: 0 = no effect, 100 = complete control
In short: (§3)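 Visual ratings, 0 (no effect) to 100 (complete control), made versus controls after 13–15 d greenhouse. Paddy plants treated at 2-leaf stage; postemergence plants at 1- to 4-leaf stage, 2–18 cm tall.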

lambsquarters = experiment: Test B pre-/postemergence herbicide test; type: in vivo, Chenopodium album; details: for Lambsquarters plant response rating: scale 0 (no effect) to 100 (complete control)
In short: as §1

ducksalad [2] = experiment: Test C flooded paddy test; type: in vivo, Heteranthera limosa
barnyardgrass [3] = experiment: Test B pre-/postemergence herbicide test; type: in vivo, Echinochloa crus-galli; details: for Barnyardgrass plant response rating: postemergence
In short: (§4)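 Plants compared with untreated controls 13–15 days post-treatment and given a visual 0–100 injury score. Applications: preemergence to seeds; postemergence at 1- to 4-leaf (2–18 cm); paddy species flooded, 2-leaf stage. Vehicle non-phytotoxic, surfactant included.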

giant foxtail = experiment: Test B pre-/postemergence herbicide test; type: in vivo, Setaria faberi; details: for Foxtail, Giant plant response rating: postemergence
In short: as §1

corn = experiment: Test B pre-/postemergence herbicide test; type: in vivo, Zea mays; details: for Corn plant response rating: postemergence
In short: as §1

barnyardgrass [4] = experiment: Test B flooded paddy test; type: in vivo, Echinochloa crus-galli; details: 1000 g ai/ha, scale 0 to 100 (0 no effect, 100 complete control)
In short: as §2

[5] = tested on: smallflower umbrella sedge; experiment: Test C flooded paddy test; type: in vivo, Cyperus difformis
wild oat = experiment: Test B postemergence herbicide test; type: in vivo, Avena fatua; details: scale 0 (no effect) to 100 (complete control)
In short: as §3

ducksalad [6] = experiment: Test B flooded paddy test; type: in vivo, Heteranthera limosa; details: 1000 g ai/ha, scale 0 to 100 (0 no effect, 100 complete control)
In short: as §2

morningglory = experiment: Test B pre-/postemergence herbicide test; type: in vivo, Ipomoea coccinea; details: for Morningglory plant response rating: scale 0 (no effect) to 100 (complete control)
In short: as §4

rice [7] = experiment: Test B flooded paddy test; type: in vivo, Oryza sativa; details: 1000 g ai/ha, scale 0 to 100 (0 no effect, 100 complete control)
In short: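 Scale 0–100: zero equals no visible effect, 100 complete control, judged by eye relative to controls. Timing: 13 to 15 days in greenhouse post-treatment. Growth stage at spraying: two leaves (paddy) or one to four leaves, 2–18 cm (postemergence).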

Surinam grass = experiment: Test B pre-/postemergence herbicide test; type: in vivo, Urochloa decumbens; details: for Surinam Grass plant response rating: scale 0 (no effect) to 100 (complete control)
In short: as §1

cocklebur = experiment: Test B pre-/postemergence herbicide test; type: in vivo, Xanthium strumarium; details: for Cocklebur plant response rating: postemergence
In short: as §4

barnyardgrass [8] = experiment: Test C flooded paddy test; type: in vivo, Echinochloa crus-galli
In short: (§5)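 Injury scored visually against controls on a 0 (no effect) to 100 (complete control) scale, 12 to 14 days after treatment in greenhouse. Flooded paddy plants treated at 2-leaf stage; postemergence plants at 1- to 4-leaf stage, 2 to 18 cm tall.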

pigweed = experiment: Test B pre-/postemergence herbicide test; type: in vivo, Amaranthus retroflexus; details: for Pigweed plant response rating: scale 0 (no effect) to 100 (complete control)
In short: as §1

rice [9] = experiment: Test C flooded paddy test; type: in vivo, Oryza sativa
In short: as §5

[10] = 125 g ai/ha, 0 is no effect, 100 is complete control, preemergence
[11] = 125 g ai/ha, visual rating, scale 0 (no effect) to 100 (complete control)
[12] = 500 g ai/ha, scale 0 to 100, 0 is no effect, 100 is complete control
[13] = 125 g ai/ha, visual rating, postemergence
[14] = 125 g ai/ha, scale 0 to 100 (0 no effect, 100 complete control)
[15] = 250 g ai/ha, scale of 0 to 100, 0 is no effect, 100 is complete control
[16] = 500 g ai/ha, visual rating after 12 to 14 days, scale 0 to 100 (0 no effect, 100 complete control)

Structure (SMILES): CCc1nn(C(C)(C)CC)nc1C(=O)Nc1cccc(C(=O)N2CC=CC2)c1 [Compound 369]
- Plant response rating (0 to 100 scale), Crabgrass, Large (large crabgrass; [10]): 20
- Crabgrass, Large plant response rating (large crabgrass; [11]): 10
- Crabgrass, Large plant response rating (large crabgrass; [12]): 20
- Sedge, Umbrella plant response rating [1]: 80
- Blackgrass plant response rating (blackgrass; [11]): 0
- Blackgrass plant response rating (blackgrass; [12]): 30
- Plant response rating (0 to 100 scale), Velvetleaf (velvetleaf; [10]): 0
- Velvetleaf plant response rating (velvetleaf; [13]): 10
- Velvetleaf plant response rating (velvetleaf; Postemergence, 500 g ai/ha): 60
- Wheat plant response rating (wheat; 125 g ai/ha, visual rating, scale 0 (no effect) to 100 (complete control), postemergence): 0
- Wheat plant response rating (wheat; 500 g ai/ha, scale 0 to 100, 0 no effect, 100 complete control, preemergence): 0
- Wheat plant response rating (wheat; Postemergence, 500 g ai/ha, scale 0 (no effect) to 100 (complete control)): 0
- Plant response rating (0 to 100 scale), Lambsquarters (lambsquarters; [10]): 100
- Lambsquarters plant response rating (lambsquarters; [13]): 20
- Lambsquarters plant response rating (lambsquarters; Postemergence, 500 g ai/ha): 70
- Ducksalad plant response rating (ducksalad [2]; 62 g ai/ha, scale 0 to 100): 80
- Ducksalad plant response rating (ducksalad [2]; [14]): 80
- Ducksalad plant response rating (ducksalad [2]; [15]): 80
- Plant response rating, Ducksalad (ducksalad [2]; [16]): 80
- Plant response rating (0 to 100 scale), Barnyardgrass (barnyardgrass [3]; [10]): 30
- Barnyardgrass plant response rating (barnyardgrass [3]; [11]): 10
- Barnyardgrass plant response rating (barnyardgrass [3]; [12]): 20
- Plant response rating (0 to 100 scale), Foxtail, Giant (giant foxtail; [10]): 20
- Foxtail, Giant plant response rating (giant foxtail; [11]): 20
- Foxtail, Giant plant response rating (giant foxtail; [12]): 30
- Plant response rating (0 to 100 scale), Corn (corn; [10]): 20
- Corn plant response rating (corn; [11]): 10
- Corn plant response rating (corn; [12]): 10
- Barnyardgrass plant response rating (barnyardgrass [4]): 50
- Sedge, Umbrella plant response rating ([5]; 62 g ai/ha, scale 0 to 100): 75
- Sedge, Umbrella plant response rating [5, 14]: 75
- Sedge, Umbrella plant response rating [5, 15]: 85
- Oat, Wild plant response rating (wild oat; [13]): 20
- Oat, Wild plant response rating (wild oat; Postemergence, 500 g ai/ha): 30
- Ducksalad plant response rating (ducksalad [6]): 90
- Plant response rating (0 to 100 scale), Morningglory (morningglory; [10]): 0
- Morningglory plant response rating (morningglory; [13]): 0
- Morningglory plant response rating (morningglory; Postemergence, 500 g ai/ha): 20
- Rice plant response rating (rice [7]): 60
- Plant response rating (0 to 100 scale), Surinam Grass (Surinam grass; [10]): 0
- Surinam Grass plant response rating (Surinam grass; [13]): 10
- Surinam Grass plant response rating (Surinam grass; Postemergence, 500 g ai/ha): 10
- Plant response rating (0 to 100 scale), Cocklebur (cocklebur; [10]): 0
- Cocklebur plant response rating (cocklebur; [11]): 20
- Cocklebur plant response rating (cocklebur; [12]): 70
- Barnyardgrass plant response rating (barnyardgrass [8]; 62 g ai/ha, scale 0 to 100 (0 no effect, 100 complete control)): 10
- Barnyardgrass plant response rating (barnyardgrass [8]; [14]): 45
- Barnyardgrass plant response rating (barnyardgrass [8]; [15]): 50
- Plant response rating, Barnyardgrass (barnyardgrass [8]; [16]): 65
- Plant response rating (0 to 100 scale), Pigweed (pigweed; [10]): 80
- Pigweed plant response rating (pigweed; [13]): 30
- Pigweed plant response rating (pigweed; Postemergence, 500 g ai/ha): 60
- Rice plant response rating (rice [9]; 62 g ai/ha, scale 0 to 100): 55
- Rice plant response rating (rice [9]; [14]): 60
- Rice plant response rating (rice [9]; [15]): 60
- Plant response rating, Rice (rice [9]; [16]): 65
